Assay results: the supplement of paper PMC4862054

Key:
Experiment in all cases: normalised viability (% of control), CellTiter-Blue; higher = more viable cells (about 100 = DMSO control)
DU-4475 [1] = details: incubation time: 72 h
Method: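 DSRT, CellTiter-Blue viability, 72 h incubation. Signal is normalised to DMSO and benzethonium chloride controls. Value is the normalised response at dose 7.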

BT-474 [2] = details: 100 nM; incubation time: 72 h
Method: (§1)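 DSRT, CellTiter-Blue viability, 72 h incubation. Signal is normalised to DMSO and benzethonium chloride controls. Value is the normalised response at dose 3.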

BT-549 = details: 100 nM; incubation time: 72 h
Method: as §1

CAL-120 = details: 100 nM; incubation time: 72 h
Method: as §1

CAL-148 = details: 10 nM; incubation time: 72 h
Method: as §1

CAL-51 [3] = details: 10 nM; incubation time: 72 h
Method: as §1

CAL-85-1 [4] = details: 10 nM; incubation time: 72 h
Method: as §1

DU-4475 [5] = details: 10 nM; incubation time: 72 h
Method: as §1

HCC1143 = details: 100 nM; incubation time: 72 h
Method: as §1

HCC1599 = details: 100 nM; incubation time: 72 h
Method: as §1

HCC1937 = details: 100 nM; incubation time: 72 h
Method: as §1

HDQ-P1 = details: 10 nM; incubation time: 72 h
Method: as §1

Hs578T = details: 100 nM; incubation time: 72 h
Method: as §1

MDA-MB-231 [6] = details: 100 nM; incubation time: 72 h
Method: as §1

MDA-MB-436 [7] = details: 100 nM; incubation time: 72 h
Method: as §1

MDA-MB-453 [8] = details: 10 nM; incubation time: 72 h
Method: as §1

MDA-MB-468 = details: 100 nM; incubation time: 72 h
Method: as §1

MFM-223 [9] = details: 100 nM; incubation time: 72 h
Method: as §1

SK-BR-3 = details: 100 nM; incubation time: 72 h
Method: as §1

BT-474 [10] = details: incubation time: 72 h
Method in brief: (§2)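 Breast cancer cell lines in 20 µl suspension were seeded onto 384-well plates pre-loaded with compound dissolved in 5 µl medium, then incubated 72 h. CellTiter-Blue reagent (2.5 µl) was added for 2 h at 37 °C and fluorescence read at 560/590 nm. Each plate was normalised to vehicle (100) and a positive kill control (0), with Z'-factor quality control. The value is normalised viability at one listed concentration of the series.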

CAL-51 [11] = details: incubation time: 72 h
Method in brief: as §2

CAL-85-1 [12] = details: incubation time: 72 h
Method in brief: as §2

DU-4475 [13] = details: incubation time: 72 h; remark: listed apart in the source
Method in brief: as §2

MDA-MB-231 [14] = details: incubation time: 72 h
Method in brief: as §2

MDA-MB-436 [15] = details: incubation time: 72 h
Method in brief: as §2

MDA-MB-453 [16] = details: incubation time: 72 h
Method in brief: as §2

MFM-223 [17] = details: incubation time: 72 h
Method in brief: as §2

For Clc1ccc(C(c2ccccc2Cl)C(Cl)Cl)cc1 (centres undefined) [Mitotane] (1000 nM), the normalised viability (DU-4475 [1]) was 87.9%.
Compound COc1cccc2cc(-c3nc([C@H]4CC[C@H](C(=O)O)CC4)n4ncnc(N)c34)[nH]c12 [OSI-027] (1000 nM) has a normalised viability (DU-4475 [1]) of 68.1%.
With OC[C@H]1O[C@@H](n2cnc3c2N=CNC[C@H]3O)C[C@@H]1O [Pentostatin] the normalised viability (BT-474 [2]) was 109%, the normalised viability (BT-549) was 80.9% and the normalised viability (CAL-120) was 103%. For the same compound, the normalised viability (CAL-148) was 111%, the normalised viability (CAL-51 [3]) was 88.4% and the normalised viability (CAL-85-1 [4]) was 103%. The normalised viability (DU-4475 [5]) was 109%, the normalised viability (HCC1143) was 112% and the normalised viability (HCC1599) was 97.6%. The normalised viability (HCC1937) was 106%, the normalised viability (HDQ-P1) was 106% and the normalised viability (Hs578T) was 91.5%. The normalised viability (MDA-MB-231 [6]) was 94.9%, the normalised viability (MDA-MB-436 [7]) was 99.1% and the normalised viability (MDA-MB-453 [8]) was 104%. It also gave a normalised viability (MDA-MB-468) of 107%, a normalised viability (MFM-223 [9]) of 95.8% and a normalised viability (SK-BR-3) of 97.6%. The normalised viability (BT-474 [10]; 10 nM) was 116%, the normalised viability (BT-474 [10]; 1000 nM) was 119% and the normalised viability (BT-474 [10]; 10000 nM) was 111%. For the same compound, the normalised viability (CAL-51 [11]; 3 nM) was 90.1%, the normalised viability (CAL-51 [11]; 30 nM) was 85.4% and the normalised viability (CAL-51 [11]; 100 nM) was 84.2%. The normalised viability (CAL-85-1 [12]; 3 nM) was 106%, the normalised viability (CAL-85-1 [12]; 30 nM) was 96.2% and the normalised viability (CAL-85-1 [12]; 100 nM) was 104%. For the same compound, the normalised viability (DU-4475 [13]; 3 nM) was 93.4%, the normalised viability (DU-4475 [13]; 30 nM) was 92.7% and the normalised viability (DU-4475 [13]; 100 nM) was 95%. For the same compound, the normalised viability (MDA-MB-231 [14]; 10 nM) was 98.5%, the normalised viability (MDA-MB-231 [14]; 1000 nM) was 102% and the normalised viability (MDA-MB-231 [14]; 10000 nM) was 108%. For the same compound, the normalised viability (MDA-MB-436 [15]; 10 nM) was 93.4%, the normalised viability (MDA-MB-436 [15]; 1000 nM) was 88.4% and the normalised viability (MDA-MB-436 [15]; 10000 nM) was 89.5%. It also gave a normalised viability (MDA-MB-453 [16]; 3 nM) of 105%, a normalised viability (MDA-MB-453 [16]; 30 nM) of 97.7% and a normalised viability (MDA-MB-453 [16]; 100 nM) of 94.8%. The normalised viability (MFM-223 [17]; 10 nM) was 93.5%, the normalised viability (MFM-223 [17]; 1000 nM) was 93% and the normalised viability (MFM-223 [17]; 10000 nM) was 98.1%.
Compound OC[C@H]1O[C@@H](n2cnc3c2N=CNC[C@H]3O)C[C@@H]1O [Pentostatin] (1000 nM) has a normalised viability (DU-4475 [1]) of 102%.
N#CC[C@H](C1CCCC1)n1cc(-c2ncnc3[nH]ccc23)cn1 [Ruxolitinib] gave a normalised viability (BT-474 [2]) of 107%, a normalised viability (BT-549) of 74.5% and a normalised viability (CAL-120) of 97.5%. The normalised viability (CAL-148) was 102%, the normalised viability (CAL-51 [3]) was 84.9% and the normalised viability (CAL-85-1 [4]) was 96.4%. The normalised viability (DU-4475 [5]) was 101%, the normalised viability (HCC1143) was 107% and the normalised viability (HCC1599) was 99.3%. It also gave a normalised viability (HCC1937) of 81.1%, a normalised viability (HDQ-P1) of 74.4% and a normalised viability (Hs578T) of 79.2%. For the same compound, the normalised viability (MDA-MB-231 [6]) was 90.8%, the normalised viability (MDA-MB-436 [7]) was 94.5% and the normalised viability (MDA-MB-453 [8]) was 93%. The normalised viability (MDA-MB-468) was 100%, the normalised viability (MFM-223 [9]) was 93.2% and the normalised viability (SK-BR-3) was 85.1%. For the same compound, the normalised viability (BT-474 [10]; 10 nM) was 108%, the normalised viability (BT-474 [10]; 1000 nM) was 103% and the normalised viability (BT-474 [10]; 10000 nM) was 119%. For the same compound, the normalised viability (CAL-51 [11]; 3 nM) was 84.6%, the normalised viability (CAL-51 [11]; 30 nM) was 97% and the normalised viability (CAL-51 [11]; 100 nM) was 97.4%. It also gave a normalised viability (CAL-85-1 [12]; 3 nM) of 114%, a normalised viability (CAL-85-1 [12]; 30 nM) of 90.4% and a normalised viability (CAL-85-1 [12]; 100 nM) of 110%. For the same compound, the normalised viability (DU-4475 [13]; 3 nM) was 103%, the normalised viability (DU-4475 [13]; 30 nM) was 106% and the normalised viability (DU-4475 [13]; 100 nM) was 121%. It also gave a normalised viability (MDA-MB-231 [14]; 10 nM) of 72.7%, a normalised viability (MDA-MB-231 [14]; 1000 nM) of 101% and a normalised viability (MDA-MB-231 [14]; 10000 nM) of 110%. The normalised viability (MDA-MB-436 [15]; 10 nM) was 93.2%, the normalised viability (MDA-MB-436 [15]; 1000 nM) was 112% and the normalised viability (MDA-MB-436 [15]; 10000 nM) was 102%. For the same compound, the normalised viability (MDA-MB-453 [16]; 3 nM) was 86.8%, the normalised viability (MDA-MB-453 [16]; 30 nM) was 89.2% and the normalised viability (MDA-MB-453 [16]; 100 nM) was 93.9%. The normalised viability (MFM-223 [17]; 10 nM) was 101%, the normalised viability (MFM-223 [17]; 1000 nM) was 98.6% and the normalised viability (MFM-223 [17]; 10000 nM) was 75.3%.
Work on N#CC[C@H](C1CCCC1)n1cc(-c2ncnc3[nH]ccc23)cn1 [Ruxolitinib] (1000 nM) yielded a normalised viability (DU-4475 [1]) of 112%.
C=CC[C@@H]1/C=C(\C)C[C@H](C)C[C@H](OC)[C@H]2O[C@@](O)(C(=O)C(=O)N3CCCC[C@H]3C(=O)O[C@H](/C(C)=C/[C@@H]3CC[C@@H](O)[C@H](OC)C3)[C@H](C)[C@@H](O)CC1=O)[C@H](C)C[C@@H]2OC [Tacrolimus] (1000 nM) gave a normalised viability (DU-4475 [1]) of 115%.
Work on C=CCNC1=C2C[C@@H](C)C[C@H](OC)[C@H](O)[C@@H](C)/C=C(\C)[C@H](OC(N)=O)[C@@H](OC)/C=C\C=C(/C)C(=O)NC(=CC1=O)C2=O [Tanespimycin] (1000 nM) yielded a normalised viability (DU-4475 [1]) of 0.99%.
In the case of CO[C@H]1C[C@@H]2CC[C@@H](C)[C@@](O)(O2)C(=O)C(=O)N2CCCC[C@H]2C(=O)O[C@H]([C@H](C)C[C@@H]2CC[C@@H](OC(=O)C(C)(CO)CO)[C@H](OC)C2)CC(=O)[C@H](C)/C=C(\C)[C@@H](O)[C@@H](OC)C(=O)[C@H](C)C[C@H](C)/C=C/C=C/C=C/1C [Temsirolimus] (100 nM), the normalised viability (DU-4475 [1]) is reported as 50.6%.
In the case of C[C@]1(c2nc3c(C(N)=O)cccc3[nH]2)CCCN1 [Veliparib] (1000 nM), the normalised viability (DU-4475 [1]) is reported as 82.1%.
CC[C@]1(O)C[C@@H]2CN(CCc3c([nH]c4ccccc34)[C@@](C(=O)OC)(c3cc4c(cc3OC)N(C)[C@H]3[C@@](O)(C(=O)OC)[C@H](OC(C)=O)[C@]5(CC)C=CCN6CC[C@]43[C@@H]65)C2)C1 [Vinblastine] (100 nM) gave a normalised viability (DU-4475 [1]) of 34.8%.
CS(=O)(=O)c1ccc(C(=O)Nc2ccc(Cl)c(-c3ccccn3)c2)c(Cl)c1 [Vismodegib] (1000 nM) showed a normalised viability (DU-4475 [1]) of 114%.
